According to PubChem BioAssay (NCI):
Values joined by “and” are separate entries in the source; they are usually repeats but may differ in a detail not shown here. Equal entries are not always repeated.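 Test compounds were applied to cells in 96-well plates for 48 hours at 5 doses. At the GI50, growth is halved. TGI denotes the concentration required for complete inhibition of growth.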

Columns and labels:
Assay in all cases: NCI anticancer screen, dose series, 48 h
MALME-3M melanoma = system: MALME-3M melanoma
NCI-H23 lung = system: NCI-H23 lung
NCI-H522 lung = system: NCI-H522 lung
OVCAR-3 ovarian = system: OVCAR-3 ovarian
RPMI-8226 leukemia = system: RPMI-8226 leukemia
SF-539 CNS = system: SF-539 CNS
SK-MEL-5 melanoma = system: SK-MEL-5 melanoma
SN12C renal = system: SN12C renal
UACC-257 melanoma = system: UACC-257 melanoma
UO-31 renal = system: UO-31 renal

Structure (SMILES)	GI50 (MALME-3M melanoma)	TGI (MALME-3M melanoma)	GI50 (NCI-H23 lung)	TGI (NCI-H23 lung)	GI50 (NCI-H522 lung)	TGI (NCI-H522 lung)	GI50 (OVCAR-3 ovarian)	TGI (OVCAR-3 ovarian)	GI50 (RPMI-8226 leukemia)	TGI (RPMI-8226 leukemia)	GI50 (SF-539 CNS)	TGI (SF-539 CNS)	GI50 (SK-MEL-5 melanoma)	TGI (SK-MEL-5 melanoma)	GI50 (SN12C renal)	TGI (SN12C renal)	GI50 (UACC-257 melanoma)	TGI (UACC-257 melanoma)	GI50 (UO-31 renal)	TGI (UO-31 renal)
CC/C(Cc1ccccc1)=C(\c1ccc(OCCN2CCCCCC2)cc1)c1ccc(OC(=O)NCc2ccccc2)cc1	0.951 µM	1.94 µM	5.89 µM	13.8 µM	1.9 µM	7.35 µM	1.86 µM	7.13 µM	1.16 µM	2.87 µM	2.43 µM	8.84 µM	1 µM	2 µM	1.83 µM	6.71 µM	3.8 µM	11.3 µM	2.03 µM	7.98 µM
COc1ccc(C#Cc2ccccc2C#CCCCCO)cc1	23 µM	45.4 µM	19.2 µM	40.5 µM	18.6 µM	34.9 µM	20.4 µM	40.2 µM	27.3 µM	72.7 µM	22.6 µM	42.8 µM	25.2 µM	57.6 µM	11 µM	23.7 µM	19.5 µM	35.8 µM	21.2 µM	39.6 µM
O=[N+]([O-])c1ccc(Nc2ccccc2-c2ccccc2)c2nonc12	5.2 µM	29.1 µM	8.63 µM	26.1 µM	11.6 µM	37.5 µM	9.15 µM	22.8 µM	6.91 µM	> 100 µM	17 µM	39.9 µM	6 µM	18.8 µM	12.4 µM	28.2 µM	12.3 µM	79.1 µM	8.14 µM	29.9 µM
COc1cccc2c1C(=O)c1c(O)c3c(c(O)c1C2=O)CC(O)(C(C)=O)CC3OC1CC(N)C(O)C(C)O1 (configuration not stated)	0.0663 mg/L	0.356 mg/L	0.0174 mg/L	0.692 mg/L	0.0317 mg/L	0.287 mg/L	0.0426 mg/L	0.958 mg/L	0.0159 mg/L	0.165 mg/L		0.113 mg/L	0.0193 mg/L	0.0525 mg/L	0.0177 mg/L	3.98 mg/L	0.116 mg/L	2.06 mg/L	0.26 mg/L	5.46 mg/L
Cc1cc(C)nc(NC(N)=NCCc2ccccc2)n1	2.23 µM	10.5 µM	7.02 µM	> 100 µM	6.02 µM	65.9 µM	2.76 µM	8.35 µM	6.45 µM	> 100 µM	2.56 µM	26.2 µM	1.75 µM	5.39 µM	3.2 µM	35.8 µM	2.64 µM	39.4 µM	5.54 µM	50.8 µM
CC1[C@@H]2[C@@H](C=C3C4CCC5Cc6nc7c(nc6C[C@@]5(C)C4C[C@H](O)[C@]32CO)CC2CCC3C4=C[C@H]5O[C@@]6(O[C@@](C)(CO)C[C@@H]6O)C(C)[C@@]5(O)[C@]4(C)[C@@H](O)CC3[C@]2(C)C7)O[C@]12CCC(C)(C)O2 (some centres not stated)	0.00982 µM	0.722 µM and 0.183 µM		0.574 µM	0.0228 µM	0.429 µM	1.99 µM	> 3.65 µM	< 0.000365 µM		0.00363 µM		0.00864 µM	0.134 µM and 0.16 µM	> 3.65 µM	> 3.65 µM		0.305 µM and 0.392 µM	0.117 µM	0.158 µM and 0.286 µM
O=C(Nc1c(O)[nH]c(=S)[nH]c1=O)c1ccccn1		> 100 µM		> 100 µM		> 100 µM		> 100 µM		> 100 µM		> 100 µM		> 100 µM		> 100 µM		> 100 µM		> 100 µM
CC(=O)OCC1OC(Nc2[nH]c(=O)n(C)c(=O)c2-c2csc(N)n2)C(OC(C)=O)C(OC(C)=O)C1OC(C)=O (configuration not stated)		> 100 µM		> 100 µM		> 100 µM		> 100 µM		> 100 µM		> 100 µM		> 100 µM		> 100 µM		> 100 µM		> 100 µM
CCN(CC)CCNC(=O)c1ccccc1NC(=O)C(=O)Nc1ccccc1C(=O)NCCN(CC)CC		37.7 µM		> 100 µM		> 100 µM		> 100 µM		> 100 µM		62.2 µM		35.6 µM		> 100 µM		35.5 µM		> 100 µM
CNC(=O)c1cc(COc2nnc(Nc3ccc(Cl)cc3)c3ccoc23)ccn1	4.11 µM and > 10 µM	17.2 µM and > 10 µM	11.1 µM and > 10 µM	37.8 µM and > 10 µM	2.85 µM and 8.83 µM	11.9 µM and > 10 µM	11.1 µM and > 10 µM	26.4 µM and > 10 µM	19.4 µM and > 10 µM	> 82.7 µM	1.53 µM and 1.89 µM	5.86 µM and > 10 µM	7.66 µM and 7.85 µM	> 47.1 µM	8.86 µM and > 10 µM	27.2 µM and > 10 µM	6.3 µM and > 10 µM	35.6 µM and > 10 µM	3.3 µM and 4.57 µM	15 µM and > 10 µM
Cc1ccc(C(=O)N(CCCN)[C@@H](c2nc3cc(Cl)ccc3c(=O)n2Cc2ccccc2)C(C)C)cc1	0.0303 µM	2.39 µM	< 0.01 µM	1.59 µM and 1.67 µM	< 0.01 µM		< 0.01 µM		< 0.01 µM	1.72 µM	< 0.01 µM	1.38 µM and 0.654 µM	< 0.01 µM	1.35 µM and 1.46 µM	< 0.01 µM	2.28 µM and 1.83 µM		1.86 µM and 2.79 µM	1.12 µM and 1.02 µM	2.58 µM and 2.27 µM
COc1cc2c(cc1O)C=NCC2		> 100 µM		> 100 µM		> 100 µM		> 100 µM		> 100 µM		> 100 µM		> 100 µM		> 100 µM		> 100 µM		> 100 µM
C(=Nc1ccccc1)C1CCCC[N-]1.C(=Nc1ccccc1)C1CCCC[N-]1.[Cu+2].[O-][Cl+3]([O-])([O-])O (configuration not stated)	14 µM	33.9 µM	15.1 µM	33.2 µM	13.3 µM	52.1 µM	13 µM	20.4 µM	3.52 µM	10.9 µM	17.7 µM	42.3 µM	8.64 µM	27.7 µM	15.4 µM	36.1 µM	> 37.7 µM	> 55.2 µM	12.6 µM	> 94.3 µM
